Literature values in paper PMC8762078, “An ALS-associated variant of the autophagy receptor SQSTM1/p62 reprograms binding selectivity toward the autophagy-related hATG8 proteins” (The Journal of Biological Chemistry, 2021).
“Also recorded” adds a separate entry of the source.

Legend:
GABARAPL2 = GABARAPL2 (Homo sapiens, UniProt P60520); conditions: ITC, compared with p62 WT-AIM
Description: A comparison may be drawn between the GABARAPL2/p62 AIM model produced here and the GABARAPL2/UBA5 AIM structure, the only published structure of an AIM-bound GABARAPL2 ([38]). Both involve the formation of an intermolecular β-sheet between the AIM and the β2 strand of GABARAPL2; however, the UBA5 AIM is atypical, and this produces a noncanonical interaction. The UBA5 AIM sequence ([…]) leads to the formation of a binding pocket not observed in the GABARAPL2/p62 AIM model proposed here or in any other hATG8/AIM interaction, due to the spacing of the key residues. The RMSD between these two ...

motor neurone-like cells = test system: motor neurone-like cells
Description: Autophagy is a central pathway for the removal of aggregated or damaged proteins and organelles and is critical to cellular homeostasis. Deregulation of autophagy is recognized as a pathogenic mechanism contributing to a range of neurodegenerative disorders, including amyotrophic lateral sclerosis (ALS) and frontotemporal lobar degeneration (FTLD) ([1], [2], [3], [4]). These conditions form a disease spectrum (ALS-FTLD) defined primarily by ubiquitinated inclusions of TAR DNA-binding protein-43 kDa in neurones ([5]). The link between ALS-FTLD and autophagy is reinforced by the identification o ... || A clear effect of the ALS-associated L341V mutation of p62/hATG8 interactions has been shown through these in vitro studies, though the impact remains relatively modest with individual interaction affinity alterations of up to approximately twofold. However, the interactions are best contextualized around the tendency for p62 to assemble into nanoscale filaments, which have been amenable to cryo-EM structural characterization (Fig. 6A) ([17], [52]). The N-terminal PB1 domain of p62 assembles into a helical protein scaffold with the flexible C-terminal chain, which carries the AIM and UBA domai ...

GABARAPL2, sequence (P60520 whole entry): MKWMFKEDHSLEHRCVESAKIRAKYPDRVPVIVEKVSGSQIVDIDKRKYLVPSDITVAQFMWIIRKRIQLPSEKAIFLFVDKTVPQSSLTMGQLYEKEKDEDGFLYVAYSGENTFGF

Substance: WGIELV [UBA5 AIM]
- thermodynamic profile of GABARAPL2/UBA5 interaction (GABARAPL2): more enthalpically driven than the interaction with p62 reported here

Substance: p62 L341V: ALS-associated L341V variant of the SQSTM1/p62 autophagy receptor
- p62 recruitment into autophagic vesicles (motor neurone-like cells): defect in p62 protein recruitment into autophagic vesicles; also recorded: reduction in p62 recruitment to acidic autophagic vesicles
